Results as given in the NIST ThermoML archive (doi:10.1016/j.jct.2012.08.033).
± gives the expanded uncertainty stated by the source.

Columns and labels:
[1] = xn = mol fraction of the nth substance listed; conditions: Liquid, vibrating tube, x1 = 1
[2] = Liquid, vibrating tube

Row | Structure (SMILES) | mass density ([1]; 293.28 K, 100.7 kPa) [kg/m3] | mass density ([1]; 313.3 K, 78.5 kPa) [kg/m3] | mass density ([2]; 293.28 K, 100.7 kPa) [kg/m3] | mass density ([2]; 313.3 K, 78.5 kPa) [kg/m3]
1 | O [water] + C1CCOC1 | 998.33 ± 2 | 992.09 ± 2 |  | 
2 | O [water] |  |  | 998.33 ± 2 | 992.09 ± 2
